{
  "source": "patent US6045800A",
  "about": "“Composition for preventing or treating periodontal diseases comprising extract from Achyranthis radix or Ulmus cortex” (LG Chemical Ltd., priority 1997, dated 2000)",
  "origin": "cited, not measured here",
  "system": "periodontal diseases",
  "data": [
    {"smiles": "CN(C)C1C(=O)C(C(N)=O)=C(O)C2(O)C(=O)C3=C(O)c4c(O)cccc4C(C)(O)C3CC12", "note": "(stereo not drawn) [tetracycline]", "values": [
      {"measurement": "clinical effect on the symptom of the disease", "setting": "1000 mg/day for 5 to 7 days", "result": "relieved to a clinically normal state"},
      {"measurement": "clinical effect of long term administration", "setting": "daily dose of 1000 mg for 2 weeks, then 250 mg once daily for 48 weeks", "result": "gingivitis has clinically decreased"},
      {"measurement": "side effects", "setting": "use of the antibiotic", "result": "vomiting, a complaint for the ache of gastrointestinal tracts, diarrhea, dental coloring"}
    ]}
  ]
}
